# According to ChEMBL document CHEMBL1201862, “PubChem BioAssay data set” (2004):
#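 Method: 48-hour compound exposure of cells in 96-well plates, five concentrations, linear interpolation of endpoints. The concentration for 50% growth inhibition is given as GI50.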 Active and inactive are the calls of the source. Cut-off read from the data, not from the text of the source: active = GI50 up to about 1.1 µM and inactive = higher.
# How the values were obtained:
# Assay in all cases: DTP human tumour cell line panel, 48 h
# RPMI-8226 = test system: RPMI-8226
# SK-MEL-5 = test system: SK-MEL-5
# MOLT-4 = test system: MOLT-4
# OVCAR-5 = test system: OVCAR-5
# NCI-H23 = test system: NCI-H23
# HT-29 = test system: HT-29
# OVCAR-3 = test system: OVCAR-3
# TK-10 = test system: TK-10
# UACC-62 = test system: UACC-62
# HOP-62 = test system: HOP-62
# A498 = test system: A498
# SK-MEL-2 = test system: SK-MEL-2
# SF-539 = test system: SF-539
# HCT-116 = test system: HCT-116
# PC-3 = test system: PC-3
# SK-OV-3 = test system: SK-OV-3
# MCF7 = test system: MCF7
# HOP-92 = test system: HOP-92
SMILES,GI50 (RPMI-8226),GI50 (SK-MEL-5),GI50 (MOLT-4),GI50 (OVCAR-5),GI50 (NCI-H23),GI50 (HT-29),GI50 (OVCAR-3),GI50 (TK-10),GI50 (UACC-62),GI50 (HOP-62),GI50 (A498),GI50 (SK-MEL-2),GI50 (SF-539),GI50 (HCT-116),GI50 (PC-3),GI50 (SK-OV-3),GI50 (MCF7),GI50 (HOP-92)
COc1cc(C(C)c2cc3c(cc2OCCN)OCO3)cc(OC)c1OC (centres undefined),37.3 µM (inactive),> 10 µM (inactive),10.9 µM (inactive),46.6 µM (inactive),31.8 µM (inactive),> 100 µM (inactive),> 100 µM (inactive),73.5 µM (inactive),35.5 µM (inactive),> 100 µM (inactive),> 100 µM (inactive),64.3 µM (inactive),> 100 µM (inactive),> 100 µM (inactive),,,,
Cc1cc(OC(=O)Nc2cccc3ccccc23)c(C(C)C)cc1C(=S)Nc1ccccc1,21.1 µM (inactive),14.4 µM (inactive),11.4 µM (inactive),20.7 µM (inactive),15.7 µM (inactive),18.7 µM (inactive),16.1 µM (inactive),,12.5 µM (inactive),16.6 µM (inactive),,13.7 µM (inactive),16.7 µM (inactive),17.8 µM (inactive),15.7 µM (inactive),10.4 µM (inactive),17.4 µM (inactive),
Cc1nnc2n1N=C(CC(=O)c1ccc(O)cc1O)CN2N,,> 100 µM (inactive),,> 100 µM (inactive),> 100 µM (inactive),> 100 µM (inactive),,> 100 µM (inactive),> 100 µM (inactive),> 100 µM (inactive),> 100 µM (inactive),> 100 µM (inactive),> 100 µM (inactive),55.7 µM (inactive),,> 100 µM (inactive),,
Cn1c(C2CCCc3c2c2ccccc2n3C)cc2ccccc21 (centres undefined),,72.9 µM (inactive),89.5 µM (inactive),136 µM (inactive),40.2 µM (inactive),83 µM (inactive),36.2 µM (inactive),> 318 µM (inactive),35.8 µM (inactive),286 µM (inactive),,85.7 µM (inactive),> 318 µM (inactive),142 µM (inactive),,100 µM (inactive),,1.5 µM (inactive)
CCCCCCCCCC[C@@H](O)[C@@H]1CC[C@H]([C@H]2CC[C@@H]([C@@H](O)CCCCCCCCCC[C@H]3CC(CC(C)=O)C(=O)O3)O2)O1 (some centres undefined),1.01 µM (active),< 0.01 µM (active),1.67 µM (inactive),18 µM (inactive),< 0.01 µM (active),15.8 µM (inactive),0.171 µM (active),12.6 µM (inactive),10.7 µM (inactive),15.1 µM (inactive),16.2 µM (inactive),14.4 µM (inactive),10.8 µM (inactive),1.18 µM (inactive),,17.3 µM (inactive),,14.7 µM (inactive)
CC(SC(=S)Nc1cccc(F)c1)C(=O)O (centres undefined),15.6 µM (inactive),,17.5 µM (inactive),46.5 µM (inactive),21 µM (inactive),30.5 µM (inactive),27.4 µM (inactive),29.2 µM (inactive),19 µM (inactive),18.3 µM (inactive),26.7 µM (inactive),24.1 µM (inactive),18.3 µM (inactive),19.2 µM (inactive),,,,
COc1cc2ccnc([C@@H](OC(=O)c3ccccc3)c3ccc(OC)c(OC)c3OC)c2cc1OC,54.3 µM (inactive),23.1 µM (inactive),41.6 µM (inactive),23.8 µM (inactive),40.6 µM (inactive),37.7 µM (inactive),27.8 µM (inactive),75.5 µM (inactive),56.4 µM (inactive),,36.1 µM (inactive),60.4 µM (inactive),47.5 µM (inactive),33.9 µM (inactive),,> 100 µM (inactive),,23.3 µM (inactive)
